# Reference: patent US20230352136A1, “SYSTEMS AND METHODS TO EVALUATE DRUG-INDUCED GASTROINTESTINAL DYSRHYTHMIA” (The Chinese University of Hong Kong, priority 2022, published 2023)
# What was measured:
# [1] = test system: ileum pacemaker potentials; test: MEA recording of pacemaker potentials (slow waves), isolated ileum; type: cell-based, Suncus murinus; settings: ileal tissues
# Procedure: (§1) Pacemaker potentials were recorded extracellularly on a 60-channel MEA system using full-thickness GI segments isolated from Suncus murinus. Basic slow-wave parameters, including frequency, amplitude, slope, period, and power partitions, were derived. Signal regularity was also evaluated using detrended fluctuation analysis and sample entropy analysis.
# (§2) Electrical recordings were taken after the animals were euthanised by carbon dioxide asphyxiation. […] The mesentery was removed, and the lumen contents were flushed with Krebs' medium. Segments (−1 cm) of duodenum, ileum, and colon were then isolated, but the stomach was kept intact. All tissue segments and the entire stomach were incubated in Krebs' medium containing nifedipine (1 μM; Sigma Aldrich, St Louis, MO, USA) for 15 min to inhibit smooth muscle activity. Pacemaker potentials were recorded using an MEA platform (MEA1060 1200×; Multichannel Systems, Reutlingen, Germany) as previously described. Briefly, tissues were placed onto the electrode field of an MEA chip (60-channel, 8×8 configuration, 3D-tip-shaped electrodes with a height of […] and an inter-electrode distance of 200 μm; Ayanda Biosystems SA, Lausanne, Switzerland). Intestinal segments were aligned horizontally to the recording electrode field, while the stomach was oriented with the antrum facing the recording electrode field. The chamber temperature was maintained at 37° C. and the sampling frequency was 1 kHz. […] All data were recorded and saved using MC_Rack (v 4.6.2, Multichannel Systems).
# (§3) Data analysis included basic slow-wave feature extraction using a custom automated program. […] The time point of drug administration was automatically identified based on the signal disturbance. The period of signal disturbance (20 s before and 40 s after the peak of the disturbance) was excluded from the analysis. Data were filtered using a passband between 0.1 Hz and 1 Hz and a stopband between 0.01 Hz and 2 Hz. The basic slow-wave features extracted were similar to those extracted in the inventors' previous studies. However, instead of using several templates and scripts written in Microsoft Excel and Spike 2, a one-step automatic and blinded MATLAB programme was used for data analysis. There were four major changes to the data analysis process as compared to the inventors' previous studies. First, auto-identification of the drug disturbance time point was used, rather than manual identification. Second, standardised signal filters were built in MATLAB to match the entire data analysis pipeline. […] Frequency partitioning was performed by segmenting the power spectrum of 0-50 cpm into the following four segments: brady-rhythm (within the range 2-[DF−1] cpm), normal-rhythm ([DF±1] cpm), tachy-rhythm (within the range [DF+1]-40 cpm), and out-of-range frequencies (<2 cpm and >40 cpm). Third, waveforms were identified using the MATLAB ‘findpeaks’ function, with a minimum peak height of […] at baseline and […] after drug treatment, with a step time of 5.4 s for the intestine and 12 s for the stomach. The average peak-to-peak amplitude, slope, and period were derived for all detected waveforms. Fourth, propagation velocity was derived using phase-difference measurements, based on the auto-select seed electrode with the highest percentage of normal rhythms.
# (§4) Dominant activation pattern identification included a phase-based analysis performed as previously described (Liu et al., 2021). Briefly, high-frequency spikes with amplitudes greater than […] were masked. Continuous frequencies were identified using continuous wavelet transformation, and the transformed data were used to plot spectrograms. […] High quality data were subjected to Hilbert transformation to identify the phase and frequency of the signals. Individual activation times were clustered using k-means clustering every 20 s and major activation patterns were grouped using a structural similarity index.
# [2] = test system: colon pacemaker potentials; test: MEA recording of pacemaker potentials (slow waves), isolated colon; type: cell-based, Suncus murinus; settings: colonic tissues
# Procedure: as §1, §2, §3, §4
compound,measurement,setting,value
"Cl.NCCc1ccc(O)c(O)c1 [dopamine, 3-Hydroxytyramine hydrochloride]",DFA fluctuation function (larger scale 26-46),"[1]; 100 nM, baseline 1.71±0.17, p<0.05, n=6",1.55±0.13
same,DFA fluctuation function (smaller scale 3-25),"[1]; 100 nM, baseline 2.35±0.14, p<0.05, n=6",2.28±0.11
same,waveform period,"[1]; 100 nM, baseline 2.66±0.40, p<0.05, n=7",3.73±1.05
same,"percentage of dominant patterns (based on post-treatment data, FIG. 3E), second pattern","[1]; 100 nM, baseline 15.6±10.3, p<0.05, n=7",4.2±4.2%
same,"percentage of dominant patterns (based on post-treatment data, FIG. 3E), third pattern","[1]; 100 nM, baseline 16.8±6.6, p<0.01, n=7",3.0±2.6%
same,"percentage of dominant baseline activation patterns, third pattern","[1]; 100 nM, baseline 17.2±4.8, p<0.0001, n=7",2.2±2.6%
same,"percentage of dominant baseline activation patterns, second pattern","[1]; 100 nM, baseline 21.5±1.7, p<0.0001, n=7",2.6±1.6%
same,average frequency (AF),"[1]; 100 nM, baseline 23.5±3.0, p<0.05, n=7",19.4±3.6 cpm
same,percentage of brady-rhythms,"[1]; 100 nM, baseline 31.8±11.7, p<0.05, n=7",60.0±26.0%
same,"percentage of dominant baseline activation patterns, first pattern","[1]; 100 nM, baseline 32.8±5.7, p<0.01, n=7",3.8±4.5%
same,percentage of normal rhythms,"[1]; 100 nM, baseline 46.1±5.6, p<0.01, n=7",4.8±17.0%
same,amplitude of slow waves,"[1]; 100 nM, baseline 165.2±20.5, p<0.001, n=7",119.2±20.0 μV
same,slope of waveforms,"[1]; 100 nM, baseline 257.5±59.8, p<0.01, n=7",160.1±42.0 μV s^−1
same,dominant power (DP) of slow waves,"[1]; 100 nM, baseline 780.4±276.9, p<0.001, n=7",177.5±83.0 μV^2
same,DFA fluctuation function (larger scale 26-46),"[1]; 1 μM, baseline 1.78±0.24, p<0.05, n=8",1.64±0.28
same,number of groups of activation patterns,"[1]; 1 μM, baseline 6.3±0.8, p<0.05, n=7",7±0.8
same,"percentage of dominant patterns (based on post-treatment data, FIG. 3E), first pattern","[1]; 1 μM, baseline 8.9±9.0, p<0.01, n=6",31.4±13.7%
same,percentage of brady-rhythms,"[1]; 1 μM, baseline 27.5±7.8, p<0.05, n=7",46.3±22.7%
same,"percentage of dominant baseline activation patterns, first pattern","[1]; 1 μM, baseline 35.2±6.0, p<0.001, n=6",13.0±6.7%
same,percentage of normal rhythms,"[1]; 1 μM, baseline 50.6±10.8, p<0.01, n=7",24.5±11.8%
same,amplitude of slow waves,"[1]; 1 μM, baseline 187.1±76.9, p<0.01, n=7",138.0±66.2 μV
same,slope of waveforms,"[1]; 1 μM, baseline 300.9±117.5, p<0.01, n=7",204.4±91.9 μV s^−1
same,dominant power (DP) of slow waves,"[1]; 1 μM, baseline 1,070.5±745.1, p<0.05, n=7",460.3±297.0 μV^2
same,"representative spectrogram (left), effect on DF",[1]; 10 μM,slightly shifted towards a higher frequency
same,"representative spectrogram (right), effect",[1]; 10 μM,extra peaks appearing to the left of the baseline DF
same,wave fronts counted in representative spatio-temporal map (1 min),"[1]; 10 μM, 26 before treatment",30
same,waveform period,"[1]; 10 μM, baseline 2.30±0.18, p<0.05, n=6",3.05 ± 0.68 s
same,number of groups of activation patterns,"[1]; 10 μM, baseline 9.3±0.7, p<0.05, n=6",6.9±1.0
same,"percentage of dominant patterns (based on post-treatment data, FIG. 3E), first pattern","[1]; 10 μM, baseline 17.2±11.5, p<0.05, n=5",32.3±13.2%
same,percentage of brady-rhythms,"[1]; 10 μM, baseline 32.8±12.9, p<0.05, n=6",63.3±28.5%
same,"percentage of dominant baseline activation patterns, first pattern","[1]; 10 μM, baseline 35.7±8.4, p<0.05, n=5",19.2±16.4%
same,percentage of normal rhythms,"[1]; 10 μM, baseline 50.9±9.8, p<0.0001, n=6",9.2±10.9%
same,amplitude of slow waves,"[1]; 10 μM, baseline 229.6±115.9, p<0.05, n=6",149.1±56.7 μV
same,slope of waveforms,"[1]; 10 μM, baseline 383.7±185.8, p<0.05, n=6",238.2±95.7 μV s^−1
same,DFA fluctuation function (larger scale 26-46),"[1]; 100 μM, baseline 1.63±0.23, p<0.05, n=7",1.43±0.21
same,DFA fluctuation function (smaller scale 3-25),"[1]; 100 μM, baseline 2.35±0.12, p<0.05, n=7",2.25±0.05
same,"percentage of dominant patterns (based on post-treatment data, FIG. 3E), third pattern","[1]; 100 μM, baseline 17.8±7.4, p<0.05, n=4",6.8±6.1%
same,"percentage of dominant baseline activation patterns, third pattern","[1]; 100 μM, baseline 19.1±2.8, p<0.01, n=4",5.9±6.6%
same,"percentage of dominant baseline activation patterns, second pattern","[1]; 100 μM, baseline 23.5±2.8, p<0.001, n=4",5.7±5.1%
same,"percentage of dominant baseline activation patterns, first pattern","[1]; 100 μM, baseline 27.6±4.1, p<0.01, n=4",9.4±9.5%
same,"dominant frequency (DF), change vs baseline","[1]; 0.1-100 μM, p>0.05, n=6-7",No significant differences
same,"propagation velocities, effect","[1]; 0.1-100 μM, p>0.05, n=6-7",did not affect
same,"average SampEn (larger scale 6-50), effect","[1]; 0.1-100 μM, p>0.05, n=6-8",did not change
same,"average SampEn (smaller scale 1-5), effect","[1]; 0.1-100 μM, p>0.05, n=6-8",did not change
same,DFA fluctuation function (smaller scale 3-25),"[1]; 1 M, baseline 2.29±0.23, p<0.05, n=8",2.19±0.20
same,waveform period,"[1]; 1 M, baseline 2.53±0.50, p<0.05, n=7",3.10 ± 0.74 s
same,DFA fluctuation function (smaller scale 3-25),"[1]; 10 M, baseline 2.24±0.32, p<0.05, n=8",2.13±0.34
same,average SampEn (larger scale 6-50),"[2]; 100 nM, baseline 0.33±0.06, p<0.01, n=6",0.28±0.07
same,average SampEn (smaller scale 1-5),"[2]; 100 nM, baseline 0.59±0.03, p<0.01, n=6",0.62±0.03
same,DFA fluctuation function (larger scale 26-46),"[2]; 100 nM, baseline 1.80±0.09, p<0.001, n=6",1.58±0.11
same,DFA fluctuation function (smaller scale 3-25),"[2]; 100 nM, baseline 2.37±0.07, p<0.01, n=6",2.26±0.06
same,average frequency (AF),"[2]; 100 nM, baseline 23.9±2.4, p<0.05, n=7",23.3±1.6 cpm
same,DFA fluctuation function (smaller scale 3-25),"[2]; 1 μM, baseline 2.30±0.33, p<0.05, n=8",2.23±0.34
same,number of groups of activation patterns,"[2]; 1 μM, baseline 5.4±1.0, p<0.05, n=6",6.4±1.1
same,percentage of tachy-rhythms,"[2]; 1 μM, baseline 18.3±12.6, p<0.05, n=6",55.5±34.8%
same,"percentage of dominant patterns (based on post-treatment data, FIG. 3E), first pattern","[2]; 1 μM, baseline 19.1±12.2, p<0.05, n=6",39.6±15.6%
same,percentage of normal rhythms,"[2]; 1 μM, baseline 41.4±9.7, p<0.01, n=6",14.5±18.1%
same,propagation direction and speed in video (FIGS. 12A-12B),[2]; 10 μM,relatively constant
same,"representative spectrogram, effect",[2]; 10 μM,extra peaks appeared to the right of the original DF
same,wave fronts counted in representative spatio-temporal map (1 min),"[2]; 10 μM, 32 before treatment",32
same,average SampEn (smaller scale 1-5),"[2]; 10 μM, baseline 0.57±0.06, p<0.05, n=6",0.60±0.04
same,DFA fluctuation function (smaller scale 3-25),"[2]; 10 μM, baseline 2.24±0.23, p<0.05, n=6",2.11±0.27
same,number of groups of activation patterns,"[2]; 10 μM, baseline 6±0.7, p<0.05, n=9",6.8±1.1
same,percentage of normal rhythms,"[2]; 10 μM, baseline 42.4±6.9, p<0.05, n=9",13.1±17.4%
same,DFA fluctuation function (larger scale 26-46),"[2]; 100 μM, baseline 1.63±0.19, p<0.05, n=10",1.46±0.21
same,DFA fluctuation function (smaller scale 3-25),"[2]; 100 μM, baseline 2.31±0.12",2.19±0.13
same,"percentage of dominant patterns (based on post-treatment data, FIG. 3E), third pattern","[2]; 100 μM, baseline 20.3±10.8, p<0.0001, n=5",7.5±5.8%
same,"percentage of dominant baseline activation patterns, first pattern","[2]; 100 μM, baseline 34.4±3.7, p<0.01, n=4",11.4±12.9%
same,percentage of brady-rhythms,"[2]; 100 μM, baseline 34.7±9.1, p<0.05, n=6",53.9±26.8%
same,percentage of normal rhythms,"[2]; 100 μM, baseline 53.1±8.1, p<0.05, n=6",33.4±23.3%
same,amplitude of slow waves,"[2]; 100 μM, baseline 267.3±80.9, p<0.01, n=6",199.7±48.8 μV
same,slope of waveforms,"[2]; 100 μM, baseline 439.3±124.3, p<0.001, n=6",299.0±76.5 μV s^−1
same,"dominant frequency (DF), change vs baseline","[2]; 0.1-100 μM, p>0.05, n=6-9",No significant differences
same,"dominant power (DP), change vs baseline","[2]; 0.1-100 μM, p>0.05, n=6-9",No significant differences
same,"propagation velocities, effect","[2]; 0.1-100 μM, p>0.05, n=6-9",did not affect
same,"waveform period, change vs baseline","[2]; 0.1-100 μM, p>0.05, n=6-9",No significant differences
same,average SampEn (smaller scale 1-5),"[2]; 1 M, baseline 0.57±0.06, p<0.01, n=8",0.59±0.05
same,DFA fluctuation function (larger scale 26-46),"[2]; 1 M, baseline 1.74±0.26, p<0.01, n=8",1.61±0.29
same,DFA fluctuation function (larger scale 26-46),"[2]; 10 M, baseline 1.73±0.16, p<0.05, n=6",1.53±0.19
